# Tested on: A2058 human melanoma cells
# Assay: Cell migration test (LPA-induced, Chemo-Tx)
# Format: cell-based
# Conditions: LPA 100 nM, 3 hours, read-out: IC50: concentration of the test compound which inhibits the cell migration activity of LPA by 50%
# Method: The cell migration test was carried out using Chemo-Tx (registered trademark) (116-8, Neuro Probe). A2058 human melanoma cells (obtained from European Collection of Cell Culture) were cultured in a serum-free EMEM medium for 24 hours, and then re-suspended in a 0.1% BSA-containing DMEM medium to obtain a cell suspension. The test compound dissolved in DMSO in various concentration was each added to the cell suspension, and the suspension was cultured at 37° C. for 15 minutes (the final DMSO concentration of 0.5%). LPA dissolved in a 0.1% BSA-containing DMEM medium (the final concentration of 100 nM) was added to Chemo-Tx 96 well plate, and a Chemo-Tx filter which had been coated with 0.001% Fibronectin on the both surfaces was put on the plate. The suspension of cultured cells (25,000 cells) was added onto the upper surface of the filter and further cultured at 37° C. for 3 hours, and the cells on the upper surface of the filter were removed. After the filter was removed and dried, the cells which had migrated to the lower surface of the filter were stained using Diff-Quik stain (16920, Sysmex). The absorbance of the filter (570 nm) was measured and the concentration of the test compound which inhibits the cell migration activity of LPA by 50%, (1050) was determined by non-linear regression analysis using EXSAS (version 7.6.0, Arm Systex).
row,IC50 [nM],SMILES
1,≤ 200,"CC(OC(=O)Nc1cc(F)sc1-c1ccc(-c2ccc(C3(C(=O)O)CC3)cc2)cc1)c1cc(F)c(F)cc1F (racemic) [I-171, (RS)-1-{4′-[5-Fluoro-3-({[1-(2,4,5-trifluorophenyl)ethoxy]carbonyl}amino)thiophen-2-yl]-[1,1′-biphenyl]-4-yl}cyclopropanecarboxylic acid]"
2,≤ 200,"COc1cc(-c2sc(F)cc2NC(=O)OC(C)c2cc(F)ccc2Cl)ccc1-c1ccc(C2(C(=O)O)CC2)cc1 (racemic) [I-469, (RS)-1-{4′-[3-({[1-(2-Chloro-5-fluorophenyl)ethoxy]carbonyl}amino)-5-fluorothiophen-2-yl]-2′-methoxy-[1,1′-biphenyl]-4-yl}cyclopropanecarboxylic acid]"
3,≤ 200,"COc1cc(-c2sc(F)cc2NC(=O)OC(C)c2ccc(F)cc2C)ccc1-c1ccc(C2(C(=O)O)CC2)cc1 (racemic) [I-477, (RS)-1-{4′-[5-Fluoro-3-({[1-(4-fluoro-2-methylphenyl)ethoxy]carbonyl}amino)thiophen-2-yl]-2′-methoxy-[1,1′-biphenyl]-4-yl}cyclopropanecarboxylic acid]"
4,≤ 200,"COc1cc(-c2sc(F)cc2NC(=O)OC(C)c2cc(F)ccc2C)ccc1-c1ccc(C2(C(=O)O)CC2)cc1 (racemic) [I-481, (RS)-1-{4′-[5-Fluoro-3-({[1-(5-fluoro-2-methylphenyl)ethoxy]carbonyl}amino)thiophen-2-yl]-2′-methoxy-[1,1′-biphenyl]-4-yl}cyclopropanecarboxylic acid]"
5,≤ 200,"CC(OC(=O)Nc1cc(Cl)sc1-c1ccc(-c2ccc(C3(C(=O)O)CC3)cc2)cc1)c1ccsc1 (racemic) [I-595, (RS)-1-{4′-[5-Chloro-3-({[1-(thiophen-3-yl)ethoxy]carbonyl}amino)thiophen-2-yl]-[1,1′-biphenyl]-4-yl}cyclopropanecarboxylic acid]"
6,≤ 200,"Cc1cscc1C(C)OC(=O)Nc1cc(Cl)sc1-c1ccc(-c2ccc(C3(C(=O)O)CC3)cc2)cc1 (racemic) [I-605, (RS)-1-{4′-[5-Chloro-3-({[1-(4-methylthiophen-3-yl)ethoxy]carbonyl}amino)thiophen-2-yl]-[1,1′-biphenyl]-4-yl}cyclopropanecarboxylic acid]"
7,≤ 200,CC(OC(=O)Nc1cc(Cl)sc1-c1ccc(-c2ccc(C3(C(=O)O)CC3)cc2)cc1)c1ccsn1 (racemic) [I-621]
8,≤ 200,"CC(OC(=O)Nc1cc(Cl)sc1-c1ccc(-c2ccc(C3(C(=O)O)CC3)cc2)cc1)c1cnsc1 (racemic) [I-625, (RS)-1-{4′-[5-Chloro-3-({[1-(isothiazol-4-yl)ethoxy]carbonyl}amino)thiophen-2-yl]-[1,1′-biphenyl]-4-yl}cyclopropanecarboxylic acid]"
9,≤ 200,"COc1cc(-c2sc(Cl)cc2NC(=O)OC(C)c2ccsc2)ccc1-c1ccc(C2(C(=O)O)CC2)cc1 (racemic) [I-779, (RS)-1-{4′-[5-Chloro-3-({[1-(thiophen-3-yl)ethoxy]carbonyl}amino)thiophen-2-yl]-2′-methoxy-[1,1′-biphenyl]-4-yl}cyclopropanecarboxylic acid]"
10,≤ 200,"COc1cc(-c2sc(Cl)cc2NC(=O)OC(C)c2cscc2C)ccc1-c1ccc(C2(C(=O)O)CC2)cc1 (racemic) [I-783, (RS)-1-{4′-[5-Chloro-3-({[1-(4-methylthiophen-3-yl)ethoxy]carbonyl}amino)thiophen-2-yl]-2′-methoxy-[1,1′-biphenyl]-4-yl}cyclopropanecarboxylic acid]"
11,≤ 200,"COc1cc(-c2sc(Cl)cc2NC(=O)OC(C)c2cscc2Cl)ccc1-c1ccc(C2(C(=O)O)CC2)cc1 (racemic) [I-791, (RS)-1-{4′-[5-Chloro-3-({[1-(4-chlorothiophen-3-yl)ethoxy]carbonyl}amino)thiophen-2-yl]-2′-methoxy-[1,1′-biphenyl]-4-yl}cyclopropanecarboxylic acid]"
12,≤ 200,"COc1cc(-c2sc(F)cc2NC(=O)OC(C)c2cscc2C)ccc1-c1ccc(C2(C(=O)O)CC2)cc1 (racemic) [I-815, (RS)-1-{4′-[5-Fluoro-3-({[1-(4-methylthiophen-3-yl)ethoxy]carbonyl}amino)thiophen-2-yl]-2′-methoxy-[1,1′-biphenyl]-4-yl}cyclopropanecarboxylic acid]"
13,≤ 200,"COc1cc(-c2sc(F)cc2NC(=O)OC(C)c2cscc2Cl)ccc1-c1ccc(C2(C(=O)O)CC2)cc1 (racemic) [I-823, (RS)-1-{4′-[3-({[1-(4-Chlorothiophen-3-yl)ethoxy]carbonyl}amino)-5-fluorothiophen-2-yl]-2′-methoxy-[1,1′-biphenyl]-4-yl}cyclopropanecarboxylic acid]"
14,≤ 200,"C[C@@H](OC(=O)Nc1cc(Cl)sc1-c1ccc(-c2ccc(C3(C(=O)O)CC3)cc2)cc1)c1ccc(F)c(F)c1 [I-72, (R)-1-{4′-[5-Chloro-3-({[1-(3,4-difluorophenyl)ethoxy]carbonyl}amino)thiophen-2-yl]-[1,1′-biphenyl]-4-yl}cyclopropanecarboxylic acid]"
15,≤ 200,"C[C@@H](OC(=O)Nc1cc(F)sc1-c1ccc(-c2ccc(C3(C(=O)O)CC3)cc2)cc1)c1ccc(F)c(F)c1 [I-148, (R)-1-{4′-[3-({[1-(3,4-Difluorophenyl)ethoxy]carbonyl}amino)-5-fluorothiophen-2-yl]-[1,1′-biphenyl]-4-yl}cyclopropanecarboxylic acid]"
16,≤ 200,"COc1cc(-c2sc(Cl)cc2NC(=O)O[C@H](C)c2ccc(F)cc2Cl)ccc1-c1ccc(C2(C(=O)O)CC2)cc1 [I-396, (R)-1-{4′-[5-Chloro-3-({[1-(2-chloro-4-fluorophenyl)ethoxy]carbonyl}amino)thiophen-2-yl]-2′-methoxy-[1,1′-biphenyl]-4-yl}cyclopropanecarboxylic acid]"
17,≤ 200,"COc1cc(-c2sc(F)cc2NC(=O)O[C@H](C)c2ccc(Cl)cc2)ccc1-c1ccc(C2(C(=O)O)CC2)cc1 [I-446, (R)-1-{4′-[3-({[1-(4-Chlorophenyl)ethoxy]carbonyl}amino)-5-fluorothiophen-2-yl]-2′-methoxy-[1,1′-biphenyl]-4-yl}cyclopropanecarboxylic acid]"
18,≤ 200,"COc1cc(-c2sc(F)cc2NC(=O)O[C@H](C)c2ccc(F)cc2F)ccc1-c1ccc(C2(C(=O)O)CC2)cc1 [I-454, (R)-1-{4′-[3-({[1-(2,4-Difluorophenyl)ethoxy]carbonyl}amino)-5-fluorothiophen-2-yl]-2′-methoxy-[1,1′-biphenyl]-4-yl}cyclopropanecarboxylic acid]"
19,≤ 200,"COc1cc(-c2sc(F)cc2NC(=O)O[C@H](C)c2ccc(F)cc2Cl)ccc1-c1ccc(C2(C(=O)O)CC2)cc1 [I-466, (R)-1-{4′-[3-({[1-(2-Chloro-4-fluorophenyl)ethoxy]carbonyl}amino)-5-fluorothiophen-2-yl]-2′-methoxy-[1,1′-biphenyl]-4-yl}cyclopropanecarboxylic acid]"
20,≤ 200,"C[C@@H](OC(=O)Nc1cc(Cl)sc1-c1ccc(-c2ccc(C3(C(=O)O)CC3)cc2)c([N+](=O)[O-])c1)c1ccccc1 [I-490, (R)-1-[4′-(5-Chloro-3-{[(1-phenylethoxy)carbonyl]amino}thiophen-2-yl)-2′-nitro-[1,1′-biphenyl]-4-yl]cyclopropanecarboxylic acid]"

# Reference: US10597375B2, “Halogen-substituted heterocyclic compound” (UBE INDUSTRIES, LTD., priority 2012, dated 2020)
